Reference: PubChem BioAssay (NCI)
Where “and” joins values, the source holds several entries; their conditions need not be identical. Equal entries are not always repeated.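 Values below derive from 48-hour exposures of cells grown in 96-well plates, with endpoints linearly interpolated between the two concentrations bracketing the appropriate inhibition level. GI50 = concentration required for 50% inhibition of growth. The concentration for full growth arrest is given as TGI.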

Tests used:
Assay in all cases: NCI tumour cell line growth inhibition, 48 h
[1] = tested on: SF-295 CNS
[2] = tested on: CCRF-CEM leukemia
[3] = tested on: NCI-H460 lung
[4] = tested on: U251 CNS
[5] = tested on: UACC-257 melanoma
[6] = tested on: HOP-92 NSCLC
[7] = tested on: LOX IMVI melanoma
[8] = tested on: NCI-H23 lung
[9] = tested on: OVCAR-4 ovarian
[10] = tested on: COLO 205 colon

SMILES: C[C@]12CC[C@@H]3c4cc(OC(F)F)c(OS(N)(=O)=O)cc4CC[C@H]3[C@@H]1CC[C@@H]2OS(N)(=O)=O
- GI50 [1]: 1.04 µM
- TGI [1]: 3.14 µM
- TGI [2]: > 70.7 µM
- GI50 [3]: 1.45 µM
- TGI [3]: 15.4 µM
- GI50 [4]: 1.83 µM
- TGI [4]: 20.2 µM
- GI50 [5]: 5.87 µM
- TGI [5]: 24.8 µM
- GI50 [6]: 1.15 µM
- TGI [6]: 10.6 µM
- GI50 [7]: 1.25 µM
- TGI [7]: 19.1 µM
- GI50 [8]: 2.44 µM
- TGI [8]: 21.6 µM
- GI50 [9]: 5.33 µM
- TGI [9]: 29.5 µM
- GI50 [10]: 2.97 µM
- TGI [10]: 21.4 µM

SMILES: COc1cc2c(cc1Cc1cccc(Cl)c1F)c(=O)c(C(=O)O)cn2[C@@H](CO)C(C)C
- GI50 [1]: 2.14 µM
- TGI [1]: 5.53 µM
- GI50 [2]: 3.41 µM
- TGI [2]: 14.2 µM
- GI50 [3]: 3.07 µM
- TGI [3]: 10.6 µM
- GI50 [4]: 3.17 µM
- TGI [4]: 12.2 µM
- GI50 [5]: 3.23 µM
- TGI [5]: 14 µM
- GI50 [6]: 1.45 µM
- TGI [6]: 6.34 µM
- GI50 [7]: 2.69 µM
- TGI [7]: 10.1 µM
- GI50 [8]: 3.18 µM
- TGI [8]: 12.4 µM
- GI50 [9]: 3.7 µM
- TGI [9]: 16.6 µM
- GI50 [10]: 2.64 µM
- TGI [10]: 6.29 µM

SMILES: COc1cc(/C(=C2/O[C@@H]([C@H]3COC(C)(C)O3)[C@H]3OC(C)(C)O[C@@H]23)c2ccc3ccccc3c2)cc(OC)c1OC
- GI50 [1]: 6.92 µM
- TGI [1]: 52.1 µM
- GI50 [2]: 48.3 µM
- TGI [2]: > 100 µM
- GI50 [3]: 4.1 µM
- TGI [3]: > 100 µM
- GI50 [4]: 3.12 µM
- TGI [4]: 11.8 µM
- GI50 [5]: 4.28 µM
- TGI [5]: 67.9 µM
- GI50 [6]: 2.67 µM
- TGI [6]: 13.3 µM
- GI50 [7]: 3.39 µM
- TGI [7]: 19.8 µM
- GI50 [8]: 5.43 µM
- TGI [8]: > 100 µM
- GI50 [9]: 2.82 µM
- TGI [9]: 8.02 µM
- GI50 [10]: 6.97 µM
- TGI [10]: > 100 µM

SMILES: COc1cccc(/C=N/NC(=O)c2ccccc2N2CCCC2)c1O
- GI50 [1]: 4.88 µM
- TGI [1]: > 100 µM
- GI50 [2]: 0.712 µM
- TGI [2]: > 100 µM
- GI50 [3]: 3.25 µM
- TGI [3]: 52 µM
- GI50 [4]: 4.27 µM
- TGI [4]: > 100 µM
- GI50 [5]: 3.05 µM
- TGI [5]: > 100 µM
- GI50 [6]: 4.67 µM
- TGI [6]: > 100 µM
- GI50 [7]: 2.54 µM
- TGI [7]: > 100 µM
- GI50 [8]: 7.85 µM
- TGI [8]: > 100 µM
- GI50 [9]: 2.63 µM
- TGI [9]: > 100 µM
- GI50 [10]: 3.03 µM
- TGI [10]: > 100 µM

SMILES: CC1=CCCC2C1(C)CCC(C)C2(C)Cc1cc(O)ccc1O (stereo unspecified)
- GI50 [1]: 10.4 µM
- TGI [1]: 23.5 µM and 21 µM
- GI50 [2]: 3.76 µM
- TGI [2]: > 37.1 µM and 5.88 µM
- GI50 [3]: 7.19 µM
- TGI [3]: 28.9 µM and 20.5 µM
- TGI [4]: 15.4 µM and 16.5 µM
- GI50 [5]: 9.99 µM
- TGI [5]: 29.1 µM and 26.4 µM
- TGI [6]: 22.6 µM and 15.2 µM
- GI50 [7]: 3.6 µM
- TGI [7]: 16.2 µM and 16.3 µM
- GI50 [8]: 7.38 µM
- TGI [8]: 20.4 µM and 17.5 µM
- GI50 [9]: 3.58 µM
- TGI [9]: 24.8 µM and 10.8 µM
- TGI [10]: 34.9 µM and 32.1 µM

SMILES: CC[C@@H](C(=O)[C@H](C)[C@H](O)[C@@H](C)[C@H]1O[C@H]([C@@H](CC)C(=O)N(CC)CC)CC[C@H]1C)C1O[C@]2(C=C[C@@H](O)[C@]3(CC[C@@](C)([C@H]4CC[C@](O)(CC)[C@H](C)O4)O3)O2)[C@H](C)C[C@@H]1C (stereo partly specified)
- GI50 [1]: 2.49 µM
- TGI [1]: 9.81 µM
- GI50 [2]: 3.39 µM
- TGI [2]: 13.4 µM
- GI50 [3]: 2.61 µM
- TGI [3]: 7.3 µM
- GI50 [4]: 3.33 µM
- TGI [4]: 14 µM
- GI50 [5]: 3.07 µM
- TGI [5]: 12.4 µM
- GI50 [6]: 1.45 µM
- TGI [6]: 5.43 µM
- GI50 [7]: 1.83 µM
- TGI [7]: 4.29 µM
- GI50 [8]: 2.81 µM
- TGI [8]: 8.94 µM
- GI50 [9]: 3.04 µM
- TGI [9]: 11.3 µM
- GI50 [10]: 2.5 µM
- TGI [10]: 5.82 µM

SMILES: CCCCCCCCC/C(=N\NC(=O)c1ccncc1)c1ccc(O)c(O)c1O
- GI50 [1]: 0.307 µM
- TGI [1]: > 100 µM
- GI50 [2]: 0.0426 µM
- TGI [2]: 3.63 µM
- GI50 [3]: 0.0705 µM
- TGI [3]: 1.1 µM
- GI50 [4]: 0.11 µM
- TGI [4]: 65.9 µM
- GI50 [5]: 0.293 µM
- TGI [5]: 9.32 µM
- GI50 [6]: 0.385 µM
- TGI [6]: > 100 µM
- GI50 [7]: 0.0937 µM
- TGI [7]: 11.9 µM
- GI50 [8]: 0.393 µM
- TGI [8]: 29.1 µM
- GI50 [9]: 0.12 µM
- TGI [9]: 18 µM
- GI50 [10]: 0.617 µM
- TGI [10]: 17.4 µM

SMILES: C[C@@H](NC(=O)/C(C#N)=C/c1ccc([N+](=O)[O-])cc1)c1ccccc1
- GI50 [1]: 2.25 µM
- TGI [1]: 5.49 µM
- GI50 [2]: 2.56 µM
- TGI [2]: > 38.9 µM
- GI50 [3]: 2.58 µM
- TGI [3]: 6.95 µM
- GI50 [4]: 1.79 µM
- TGI [4]: 3.44 µM
- GI50 [5]: 2.38 µM
- TGI [5]: 7.09 µM
- GI50 [6]: 1.89 µM
- TGI [6]: 5.96 µM
- GI50 [7]: 1.94 µM
- TGI [7]: 4.64 µM
- GI50 [8]: 2.08 µM
- TGI [8]: 5.02 µM
- GI50 [9]: 2.15 µM
- TGI [9]: 5.95 µM
- GI50 [10]: 2 µM
- TGI [10]: 3.71 µM

SMILES: Cc1cc(O)cc(C)c1/C=C/c1cncc(C(N)=O)c1
- GI50 [1]: 2.9 µM
- TGI [1]: > 25 µM
- GI50 [2]: 2.88 µM
- TGI [2]: > 25 µM
- GI50 [3]: 1.84 µM
- TGI [3]: > 25 µM
- GI50 [4]: 1.49 µM
- TGI [4]: > 25 µM
- GI50 [5]: 3.37 µM
- TGI [5]: > 25 µM
- GI50 [6]: 1.5 µM
- TGI [6]: > 14.7 µM
- GI50 [7]: 1.94 µM
- TGI [7]: > 25 µM
- GI50 [8]: 7.24 µM
- TGI [8]: > 25 µM
- GI50 [9]: 14.5 µM
- TGI [9]: > 25 µM
- GI50 [10]: 16.5 µM
- TGI [10]: > 25 µM

SMILES: N/C(=N/N=C/c1ccccc1)N/N=C\c1ccccc1
- GI50 [1]: 3.96 µM
- TGI [1]: 32.4 µM
- GI50 [2]: 5.13 µM
- TGI [2]: > 100 µM
- GI50 [3]: 3.89 µM
- TGI [3]: > 100 µM
- GI50 [4]: 5.08 µM
- TGI [4]: 70.9 µM
- GI50 [5]: 7.5 µM
- TGI [5]: 27.6 µM
- GI50 [6]: 2.52 µM
- TGI [6]: 42.2 µM
- GI50 [7]: 6.27 µM
- TGI [7]: 84.7 µM
- GI50 [8]: 6.78 µM
- TGI [8]: > 100 µM
- GI50 [9]: 19.6 µM
- TGI [9]: > 100 µM
- GI50 [10]: 3.66 µM
- TGI [10]: 14.7 µM

SMILES: CC[C@@]1(O)C(=O)OCc2c1cc1n(c2=O)Cc2cc3cccc([N+](=O)[O-])c3nc2-1
- GI50 [1]: 0.346 µM
- TGI [1]: 16 µM
- GI50 [2]: 0.0506 µM
- TGI [2]: 50.4 µM
- GI50 [3]: 0.0671 µM
- TGI [3]: 1.51 µM
- GI50 [4]: 0.312 µM
- TGI [4]: 3.07 µM
- GI50 [5]: 2.81 µM
- TGI [5]: 36.9 µM
- GI50 [6]: 8.45 µM
- TGI [6]: 50.8 µM
- GI50 [7]: 0.429 µM
- TGI [7]: 6.14 µM
- GI50 [8]: 0.486 µM
- TGI [8]: 4.19 µM
- GI50 [9]: 4.04 µM
- TGI [9]: 24.3 µM
- GI50 [10]: 4.63 µM
- TGI [10]: 25.9 µM

SMILES: CCCCCCCCCCCCSC1=C(Cl)C(=O)C(OC)=C(OC)C1=O
- GI50 [1]: 2.03 µM
- TGI [1]: 7 µM
- GI50 [2]: 1.53 µM
- TGI [2]: > 100 µM
- GI50 [3]: 2.15 µM
- TGI [3]: 11.1 µM
- GI50 [4]: 1.57 µM
- TGI [4]: 12.2 µM
- GI50 [5]: 3.62 µM
- TGI [5]: 27.6 µM
- GI50 [6]: 2.67 µM
- TGI [6]: 16.3 µM
- GI50 [7]: 0.462 µM
- TGI [7]: 5.38 µM
- GI50 [8]: 3.36 µM
- TGI [8]: 20.2 µM
- GI50 [9]: 3.81 µM
- TGI [9]: 26.6 µM
- GI50 [10]: 4.32 µM
- TGI [10]: 18.4 µM
